# Source: PubChem BioAssay AID2060619 (Molecular Pharmacology Branch, DTP, NCI, 2025)
# pIC50: −log10 of the molar value.
# Test system: 323965-272-R-J2-PDC complex spheroid viability
# Assay: Anticancer human tumor 323965-272-R-J2-PDC patient-derived pancreatic carcinoma cell line growth inhibition [CLK]
# Settings: for pIC50: curve of first compound; for viability, T/C: stronger effect = lower value
# From the text: A high-throughput screen of multi-cell type tumor spheroids was designed to identify active combinations of […] and targeted small molecules. Complex spheroids include a stromal component modeled by human endothelial cells (HUVEC) and fibroblasts modeled by human mesenchymal stem cells (MSCs). The concentration ranges selected for each drug and investigational agent were based upon clinically achievable concentrations if the clinical Cmax of the agent was known.
# Compounds. The drugs and investigational agents: cirtuvivint (SM08502; NSC835563), CC-671 (NSC850746), vemurafenib (NSC761431), tapotoclax (NSC804041), sotorasib (NSC818433), adagrasib (NSC831453), MRTX-1133 (NSC836407), BAY2416964 (NSC825713), copanlisib (NSC816437), inavolisib (NSC800729), abemaciclib (NSC768073), osimertinib (NSC779217), entinostat (NSC756642), eltanexor (KPT-8602, NSC794443), venetoclax (NSC766270), ceralasertib (NSC777638), bortezomib (NSC756655), olaparib (NSC753686), talazoparib (NSC767125), alisertib (NSC759677), peposertib (NSC802822), gemcitabine (NSC613327), 5-fluorouracil (NSC19893), SN-38 (NSC673596), oxaliplatin (NSC266046), paclitaxel (NSC125973), and doxorubicin (NSC123127), were obtained from the National Cancer Institute (NCI) Developmental Therapeutics Program Chemical Repository. The FDA-approved anticancer drug set is available from the Developmental Therapeutics Program at https://dtp.cancer.gov/organization/dscb/obtaining/available plates.htm. […] The stock solutions were prepared in dimethyl sulfoxide (DMSO, Sigma-Aldrich, St. Louis, MO, cat. D2650), except for the platinum complexes which were prepared in saline (Quality Biological, Gaithersburg, MD, cat. 114-055-101), at 800-fold the tested concentration and stored at -70 degrees C prior to their use. All drugs and investigational agents were tested over a range starting from a high concentration at or near the clinical Cmax and decreasing in half-log increments. If the clinical Cmax for an agent had not been determined, the highest concentration tested was 10 microM.
# Cell Culture. All cells were maintained in an incubator at 37 degrees C and 5% CO2 with 95% humidity. The PDC lines were cultured according to standard operating procedures established by the NCI PDMR. Briefly, all PDCs were thawed and cultured in Matrigel-coated flasks prepared with a working solution of 1X Ham's F-12 nutrient mix, without supplementation (Invitrogen, Waltham, MA, cat. 11765054), 100 U/mL penicillin-streptomycin (Invitrogen, cat. 15140122), and 2.5% Matrigel (Corning Inc., Corning, NY, cat. 354248) for the first three passages. The 947758-054-R-J2-PDC line was cultured in 6B/Colon 1A media, which includes advanced DMEM/F-12 (Thermo Fisher Scientific, cat. 12634028), 10 mM HEPES (Thermo Fisher Scientific, cat. 15630080), 1X GlutaMAX supplement (Thermo Fisher Scientific, cat. 35050061), 0.1 mg/mL primocin (InvivoGen, cat. ant-pm-2), 10% defined fetal bovine serum, heat inactivated (HyClone Laboratories Inc., cat. SH30070.03HI), 1.25 mM N-Acetyl-L-cysteine (Sigma-Aldrich, cat. A9165), 10 mM nicotinamide (Sigma-Aldrich, cat. N0636), 1X B-27 supplement (Thermo Fisher Scientific, cat. 17504044), 1X N-2 supplement (Thermo Fisher Scientific, cat. 17502048), and 10 microM Y-27632 dihydrochloride (Tocris Bioscience, cat. 1254). The 876862-298-R-J1-PDC was cultured in 6E media, which includes all 6B/Colon 1A media components plus 50% L-WRN conditioned media (ATCC, cat. CRL-3276), 50 ng/mL recombinant human EGF recombinant protein (hEGF; Thermo Fisher Scientific, cat. PHG0311), 10 ng/mL recombinant human fibroblast growth factor 10 (hGFG-10; PeproTech, cat. 100-26), 1 ng/mL recombinant human fibroblast growth factor 2 (hFGF-2; PeproTech, cat. 100-18B), and 1 µM prostaglandin E2 (PGE2; Tocris, cat. 2296). The 227483-062-R1-J1-PDC line was cultured in Panc media, containing all 6E components except hFGF-2, with the addition of 500 nM SB-431542 (Selleckchem, cat. S1067) and 10 nM gastrin (Tocris, cat. 3006). […]
# 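Further: spheroids exposed to agents for seven days before readout.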
# 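Wherever viability, T/C is given: percent of DMSO vehicle control wells so 100% = untreated growth.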
structure (smiles),measurement,setting,value
C=C(F)C(=O)N1CCN(c2nc(OCC3CCCN3C)nc3c2CCN(c2cccc4cccc(Cl)c24)C3)CC1CC#N (centres undefined) + CN1CCN(c2cc(C(=O)Nc3cc4cc(-c5cnn(C)c5)ccc4cn3)ccn2)CC1,pIC50,second compound 0.0316 µM,< 5.00
same,pIC50,second compound 0.1 µM,7.50
same,pIC50,second compound 0.316 µM,> 7.50
same,pIC50,second compound 1 µM,> 7.50
same,pIC50,second compound 3.16 µM,> 7.50
same,pIC50,second compound 10 µM,> 7.50
same,"viability, T/C","second compound 0.0316 µM, first compound 0.0316 µM",59%
same,"viability, T/C","second compound 0.0316 µM, first compound 0.1 µM",56.5%
same,"viability, T/C","second compound 0.0316 µM, first compound 0.316 µM",48.5%
same,"viability, T/C","second compound 0.0316 µM, first compound 1 µM",74.6%
same,"viability, T/C","second compound 0.0316 µM, first compound 3.16 µM",84.4%
same,"viability, T/C","second compound 0.0316 µM, first compound 10 µM",29.1%
same,"viability, T/C","second compound 0.1 µM, first compound 0.0316 µM",45.1%
same,"viability, T/C","second compound 0.1 µM, first compound 0.1 µM",44.3%
same,"viability, T/C","second compound 0.1 µM, first compound 0.316 µM",38%
same,"viability, T/C","second compound 0.1 µM, first compound 1 µM",44.3%
same,"viability, T/C","second compound 0.1 µM, first compound 3.16 µM",58.5%
same,"viability, T/C","second compound 0.1 µM, first compound 10 µM",25.3%
same,"viability, T/C","second compound 0.316 µM, first compound 0.0316 µM",15.6%
same,"viability, T/C","second compound 0.316 µM, first compound 0.1 µM",14.8%
same,"viability, T/C","second compound 0.316 µM, first compound 0.316 µM",14.6%
same,"viability, T/C","second compound 0.316 µM, first compound 1 µM",15.5%
same,"viability, T/C","second compound 0.316 µM, first compound 3.16 µM",13.2%
same,"viability, T/C","second compound 0.316 µM, first compound 10 µM",5.86%
same,"viability, T/C","second compound 1 µM, first compound 0.0316 µM",2.38%
same,"viability, T/C","second compound 1 µM, first compound 0.1 µM",2.52%
same,"viability, T/C","second compound 1 µM, first compound 0.316 µM",2.56%
same,"viability, T/C","second compound 1 µM, first compound 1 µM",2.45%
same,"viability, T/C","second compound 1 µM, first compound 3.16 µM",1.97%
same,"viability, T/C","second compound 1 µM, first compound 10 µM",0.73%
same,"viability, T/C","second compound 3.16 µM, first compound 0.0316 µM",2.89%
same,"viability, T/C","second compound 3.16 µM, first compound 0.1 µM",2.94%
same,"viability, T/C","second compound 3.16 µM, first compound 0.316 µM",2.9%
same,"viability, T/C","second compound 3.16 µM, first compound 1 µM",2.86%
same,"viability, T/C","second compound 3.16 µM, first compound 3.16 µM",4.1%
same,"viability, T/C","second compound 3.16 µM, first compound 10 µM",0.62%
same,"viability, T/C","second compound 10 µM, first compound 0.0316 µM",3.59%
same,"viability, T/C","second compound 10 µM, first compound 0.1 µM",3.43%
same,"viability, T/C","second compound 10 µM, first compound 0.316 µM",2.46%
same,"viability, T/C","second compound 10 µM, first compound 1 µM",2.58%
same,"viability, T/C","second compound 10 µM, first compound 3.16 µM",3.56%
same,"viability, T/C","second compound 10 µM, first compound 10 µM",0.3%
CN1CCN(c2cc(C(=O)Nc3cc4cc(-c5cnn(C)c5)ccc4cn3)ccn2)CC1,"viability, T/C",compound 0.0316 µM,98.9% [middle of 12 runs]
same,"viability, T/C",compound 0.1 µM,70% [middle of 12 runs]
same,"viability, T/C",compound 0.316 µM,28.1% [middle of 12 runs]
same,"viability, T/C",compound 1 µM,4.53% [middle of 12 runs]
same,"viability, T/C",compound 3.16 µM,4.75% [middle of 12 runs]
same,"viability, T/C",compound 10 µM,4.22% [middle of 11 runs]
same,IC50,"compound alone, run of 08/14/2023",174 nM [middle of 10 runs]
